Ends that are not written are not given here.
Tests used:
[1] = test system: clonogenic cells of the small intestine (crypts); assay: Small intestine crypt survival after 13Gy X-irradiation in BDF1 mice; assay type: in vivo
Excerpt: Radiation exposure may damage or kill cells. Therefore, stem and clonogenic cells of the small intestine were exposed to radiation, treated and monitored to observe the effectiveness of the treatment. There are thought to be between four and sixteen actual stem cells in each crypt of the small intestine. There are also a further reserve of clonogneic cells which are capable of regenerating the crypt when all the actual stem cells have been killed. The survival of these clonogenic cells is therefore key to the survival of the crypt and the restoration of an intact epithelial lining following cytotoxic injury (only one clonogenic cell need survive to ensure the survival of the crypt, and therefore maintenance of an intact epithelium). Growth factors and related molecules can be used to manipulate the sensitivity of these cells to cytotoxic agents, and thereby reduce the severity of gastrointestinal and oral mucositis. Factors given prior to a cytotoxic insult may increase clonogenic cell number (thereby increasing the probability of clonogen survival) or act to arrest the cell cycle in such cells (thereby making them more resistant to damage or death). […] A combination of both protocols could give maximum protection to the epithelium.
36 adult male BDF1 mice (aged 10-12 weeks) were used. The animals were divided into 6 groups and were treated as follows: (1) Control mice, (2) Irradiated, untreated mice, (3) Mice receiving 3 mg/kg thymosin ip 3 hrs prior to irradiation, (4) Mice receiving vehicle ip 3 hrs prior to irradiation, (5) Mice receiving 3 mg/kg thymosin ip 3 times daily for 3 days prior to irradiation, (6) Mice receiving vehicle ip 3 times daily for 3 days prior to irradiation.
The injections were given at 9:00 (3 times treatment) or 12:00 (1 time treatment). At 3:00 on day 3, intestinal damage was induced using a single dose of 13Gy (Gray) X-irradiation.
4 days after irradiation the animals were culled. The small intestine was removed and fixed in Carnoy's fixative prior to processing for histological analysis. 3 um sections were cut and stained with haematoxylin and eosin. Surviving crypts with one or more clonogenic cells are clearly visible in the irradiated sections. […]
For each animal ten intestinal circumferences were analyzed (60 per group). […] The number of surviving crypts per circumference were scored and the average per group determined. Only crypts containing 10 or more strongly H&E stained cells (excluding Paneth cells) and only intact circumference not containing Peyers patches were scored (Peyers patches influence both the number of crypts in a normal circumference and the ability of a crypt to survive insult).
The average crypt width (measured at its widest point) was also measured in order to correct for scoring errors due to crypt size difference. […]

[2] = subcutaneously injected; cited from earlier work

Thymosin alpha 1 (SDAAVDTSSEITTKDLKEKKEVVEEAEN; not fully specified (N-terminus); UniProt P06454 2-29, looked up) [28-amino acid thymic peptide with immunomodulatory properties, homologous to a natural product isolated from thymosin fraction 5 of calf thymus]
survival of treatment and adverse effects ([1]; 3 mg/kg ip, single or triple dose, BDF1 mice, 13Gy X-irradiation): no obvious adverse effects | increase in surviving crypts ([1]; triple dose thymosin vs triple dose vehicle control): 77% | protection factor ([1]; triple dose thymosin vs triple dose vehicle control (5.3 vs 3)): 1.77 | corrected crypt survival (corrected number of crypts/circumference) ([1]; triple dose: 3 mg/kg ip 3 times daily for 3 days prior to 13Gy X-irradiation, BDF1 mice, 4 days after irradiation): 5.3 crypts/circumference | plasma half-life [2]: about two

Reference: patent publication US7897567B2, “Methods of protecting against radiation damage using alpha thymosin” (SciClone Pharmaceuticals, Inc., priority 2002, dated 2011)
